# Experimental data taken from doi:10.1101/2023.10.24.563163v2, “Targeting cancer with small molecule pan-KRAS degraders” (biorxiv, 2024).
# Columns and labels:
# [1] = target: KRAS^G12D (Homo sapiens, UniProt P01116, G12D); experiment: cell-based; set-up: endogenous; KRAS degradation by capillary electrophoresis immunodetection; conditions: GP5d; read-out: Dmax 24 h GP5d [%]
# Procedure: (§1) Protein Detection by Capillary Electrophoresis Cells (50 000) were seeded the day before treatment into 96-well clear-flat bottom plates and incubated overnight (37 °C, humidified tissue culture incubator, 5% CO2). Compounds were added from DMSO stock solution using a digital dispenser and cells are incubated at 37 °C as specified (24 hours for KRAS degradation, 6 hours for determination of pERK levels). At the end of the incubation, medium was removed, cells washed with ice cold PBS, PBS removed and 50 µL lysis buffer (Meso Scale Discovery #R60TX-2) supplemented with 1:100 protease inhibitor solution, 1:100 phosphatase inhibitor I, 1:100 phosphatase inhibitor II (Meso Scale Discovery #R70AA-1), 0.5 µL/mL Benzonase (Novagen #70664-3) and 10 mM dithiothreitol added to each well. Plates with lysis buffer were immediately transferred to -80 °C freezer for at least 2 hours and then thawed on ice. Lysates were transferred to a 96 well V-bottom plate and insoluble debris was pelleted by centrifugation for 20 min. at 4 000 rpm. 40 µL of the supernatant were transferred to a fresh Eppendorf PCR plate. Analysis of protein levels was conducted using the Wes System, ProteinSimple (https://www.bio-techne.com/) as specified by the manufacturer. Briefly, Wes Master Mix (12-230 kDa WES Separation Module, 8 × 25 capillary cartridges, ProteinSimple #SM-W004) and molecular weight markers were prepared as specified in the manufacturer’s recommendations. To detect primary antibodies, anti-rabbit (Protein Simple #DM-001) or anti-mouse (Protein Simple #DM-002) detection modules were used. 7.2 µL lysate + 1.8 µL master mix were combined and heated to 95 °C for 5 min.
# [2] = target: T1, KRAS^G12D GDP (Homo sapiens, UniProt P01116, C118S/G12D); experiment: biochemical; set-up: SPR binary and ternary complex binding affinity and kinetics; conditions: GDP-bound; read-out: SPR KRAS^G12D GDP KD
# T1 construct: residues 1-169, C118S background
# Source text: (§2) With the objective of identifying molecules that potently degrade multiple KRAS mutants we next sought to employ structure-based design using the solved ternary co-crystal structure of compound 3 to improve ternary complex stability and intracellular VHL engagement. […] Analysis of the VCB:compound 3:KRAS^G12V co-crystal structure (Fig. 1H) highlighted an opportunity to enhance interactions within the ternary complex by improving π-stacking between the exit vector amide of the VHL ligand and Tyr112. We therefore switched the amide for an isoxazole, which has been previously reported to improve VCB affinity in this position in other contexts ([22]), yielding compound 4 (Fig. 2A). A ternary complex co-crystal structure of VCB:compound 4:KRAS^G12V (PDB 8QW7) confirmed a consistent overall binding mode to that observed for compound 3 (RMSD = 0.72 Å), with compound 4 able to engage in π-stacking interaction between the isoxazole and Tyr112 of VCB as designed (Fig. 2B). […] FP, SPR and cellular target engagement studies support a minor improvement in binary VHL engagement for compound 4, with moderate cooperativity retained (fig. S2A-C, table S1). […] We then investigated the impact of these structural changes on degradation kinetics in live HiBiT-tagged GP5d cells (fig. S3A-D). […] Aiming to measure ternary complex stability, we noted that the FP assay reached the limits of quantification due to ternary KD approaching that of the assay probe (fig. S8B).
# [3] = target: T2, VHL:EloC:EloB (VCB) complex (Homo sapiens, UniProt P40337); experiment: biochemical; set-up: SPR binary and ternary complex binding affinity and kinetics; conditions: SPR, binary
# T2 construct: VHL 54-213 (His6 tag removed by TEV), EloC 17-112, EloB 1-104 co-expressed in E. coli; heterotrimer; with Elongin-C; Elongin-B
# Source text: as §2
# [4] = target: T3, KRAS (Homo sapiens, UniProt P01116, C118S/G12V); experiment: biochemical; set-up: SPR binary and ternary complex binding affinity and kinetics; conditions: GDP-bound; read-out: SPR KRAS^G12V GDP KD
# T3 construct: residues 1-169, C118S background; His6 tag removed, E. coli; biotinylated for SPR
# Source text: as §2
# [5] = tested on: A375; experiment: cells; set-up: pERK levels by capillary electrophoresis; conditions: Homo sapiens, A-375, 6 h
# Procedure: as §1, with “5 min. Th” for “5 min.”
# [6] = tested on: SW620; experiment: cells; set-up: pERK levels by capillary electrophoresis; conditions: Homo sapiens, SW-620, 6 h
# Procedure: as §1, with “5 min. Th” for “5 min.”
# [7] = tested on: HEK293; experiment: cells; set-up: pERK levels by capillary electrophoresis; conditions: Homo sapiens, HEK293, 6 h
# Procedure: as §1, with “5 min. Th” for “5 min.”
# T2 sequence (Q15369 17-112): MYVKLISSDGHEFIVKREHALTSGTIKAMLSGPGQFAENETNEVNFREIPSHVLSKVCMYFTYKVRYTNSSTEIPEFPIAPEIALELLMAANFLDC
# T2 sequence (Q15370 1-104, further chain): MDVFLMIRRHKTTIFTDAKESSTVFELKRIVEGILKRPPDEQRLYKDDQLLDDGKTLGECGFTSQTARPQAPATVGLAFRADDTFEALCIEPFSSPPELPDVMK
# T2 sequence (P40337 54-213): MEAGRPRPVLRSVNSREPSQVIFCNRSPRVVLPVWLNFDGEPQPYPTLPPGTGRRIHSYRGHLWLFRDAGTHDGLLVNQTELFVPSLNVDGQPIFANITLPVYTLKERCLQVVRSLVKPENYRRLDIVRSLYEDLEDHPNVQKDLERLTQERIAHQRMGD
# T1 sequence (P01116 whole entry G12D/C118S, the tested form may be a part): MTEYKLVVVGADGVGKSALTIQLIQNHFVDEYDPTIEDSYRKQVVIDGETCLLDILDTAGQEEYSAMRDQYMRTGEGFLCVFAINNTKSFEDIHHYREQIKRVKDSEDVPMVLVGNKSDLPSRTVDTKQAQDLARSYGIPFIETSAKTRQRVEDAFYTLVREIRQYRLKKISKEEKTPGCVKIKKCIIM
# T3 sequence (P01116 1-169 G12V/C118S): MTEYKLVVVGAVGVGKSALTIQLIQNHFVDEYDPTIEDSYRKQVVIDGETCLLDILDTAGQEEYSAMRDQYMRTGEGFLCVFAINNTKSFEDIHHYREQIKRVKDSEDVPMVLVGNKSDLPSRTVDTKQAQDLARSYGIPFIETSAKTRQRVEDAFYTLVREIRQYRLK
# KRAS^G12D, sequence (P01116 whole entry G12D): as the sequence (P01116 whole entry G12D/C118S, the tested form may be a part) above, with S118C counted along it
smiles,measurement,setting,value
Cc1ncsc1-c1ccc(CNC(=O)[C@@H]2C[C@@H](O)CN2C(=O)[C@@H](NC(=O)COCCCN2CCCN(c3nccc(-c4noc([C@@]5(C)CCCc6sc(N)c(C#N)c65)n4)n3)[C@@H](C)C2)C(C)(C)C)cc1 [compound 2],Dmax,[1],100%
same,Kd,[2],240 ± 31 nM
same,Kd,[3],737 ± 388 nM
same,Kd,[4],136 ± 1 nM
Cc1ncsc1-c1ccc(CNC(=O)C2CC(O)CN2C(=O)C(c2cc(OCCCCN3CCCN(c4nccc(-c5noc(C6(C)CCCc7sc(N)c(C#N)c76)n5)n4)C(C)C3)no2)C(C)C)cc1 (stereo not shown) [compound 5],IC50,[5],> 1000 nM
same,IC50,[6],> 1000 nM
same,IC50,[7],> 1000 nM
Cc1ncsc1-c1ccc(CNC(=O)[C@@H]2C[C@@H](O)CN2C(=O)[C@@H](NC(=O)CCCCCN2CCCN(c3nccc(-c4noc([C@@]5(C)CCCc6sc(N)c(C#N)c65)n4)n3)[C@@H](C)C2)C(C)(C)C)cc1 [compound 3],IC50,[5],> 1000 nM
same,IC50,[6],708 nM
same,IC50,[7],> 1000 nM
same,Dmax,[1],99%
same,Kd,[2],13 ± 2 nM
same,kon,[3]; read-out: SPR VCB kon [1/(M s)],136000 M⁻¹ s⁻¹
same,Kd,[4],9 ± 1 nM
"Cc1ncsc1-c1ccc([C@H](CO)NC(=O)[C@@H]2C[C@@H](O)CN2C(=O)[C@H](C(C)C)n2cc(OCCCCN3CCCN(c4nccc(-c5noc([C@@]6(C)CCCc7sc(N)c(C#N)c76)n5)n4)[C@@H](C)C3)nn2)cc1 [compound 7, ACBI3]",Dmax,[1],99%
same,Kd,[3],11.1 ± 0.3 nM
Cc1ncsc1-c1ccc(CNC(=O)[C@@H]2C[C@@H](O)CN2C(=O)[C@@H](c2cc(OCCCCN3CCCN(c4nccc(-c5noc([C@@]6(C)CCCc7sc(N)c(C#N)c76)n5)n4)[C@@H](C)C3)no2)C(C)C)cc1 [compound 4],IC50,[5],> 1000 nM
same,IC50,[6],9.2 nM
same,IC50,[7],> 1000 nM
same,Dmax,[1],100%
same,Kd,[2],11 ± 1 nM
same,Kd,[4],8 nM
